Laboratory results published in PMC12888861, “Antibacterial activity of enmetazobactam against Acinetobacter spp.: a molecular dissection of mechanism of action and resistance determinants” (Antimicrobial Agents and Chemotherapy, 2025).
Read-outs that look alike come from different tables or passages of the source.

Tested on: A. non-baumannii isolates (n = 87)
Test: MIC, broth microdilution (EUCAST), A. non-baumannii isolates
Assay type: cell-based, Acinetobacter spp. (non-baumannii)
Settings: for MIC: in combinations ETZ fixed at 8 mg/L
Excerpt: The bacterial strains used in this study comprised 208 clinical isolates from the Spanish National Acinetobacter spp. 2020 Multicenter Collection, which was previously characterized in detail by our research group, including whole-genome sequencing, phylogenetics studies, clonal dynamics, and resistance mechanisms ([2], [29]). Additionally, a collection of A. baumannii ATCC 17978 transformants coding the blaOXA-23, blaOXA-24/40, blaOXA-51, blaOXA-58, blaOXA-143, and blaOXA-201 genes, previously constructed and described by our group ([30]), was used to determine the activity of enmetazobactam against strains carrying the main CHDLs of A. baumannii.
The antimicrobial susceptibility of the 208 Acinetobacter spp. isolates was assessed using the broth microdilution method, as described in the European Committee on Antimicrobial Susceptibility Testing (EUCAST) v.15 guidelines (http://www.eucast.org/clinical_breakpoints). […] MICs for enmetazobactam alone were assessed as well. […] Subsequently, MIC testing was also conducted with a collection of A. baumannii ATCC 17978 transformants expressing clinically relevant OXA-like carbapenemase genes.
The A. baumannii ATCC 19606 strain was used as the reference strain in all susceptibility experiments, in duplicate assays. Antibiotics were purchased from Sigma-Aldrich, except enmetazobactam and durlobactam, which were obtained from Advanz Pharma and MedChemExpress, respectively.

[1] = Acinetobacter, A. non-baumannii isolates (n=87), ETZ fixed 8 mg/L in combinations

C[C@@H](O)[C@H]1C(=O)N2C(C(=O)O)=C(SCCN=CN)C[C@H]12 [imipenem]
MIC distribution 0.12: 71.3
MIC (Acinetobacter baylyi, isolate NO-Ab27, Acinetobacter baylyi, read-out: MIC): 0.12 µg/mL
MIC (Acinetobacter beijerinckii, isolate NO-Ab122, Acinetobacter beijerinckii, read-out: MIC): 0.12 µg/mL
MIC (Acinetobacter bereziniae, isolate NO-Ab70, Acinetobacter bereziniae, read-out: MIC): 0.12 µg/mL
MIC (Acinetobacter bereziniae, isolate NO-Ab84, Acinetobacter bereziniae, read-out: MIC): 0.12 µg/mL
MIC (Acinetobacter bereziniae, isolate NO-Ab104, Acinetobacter bereziniae, read-out: MIC): 0.12 µg/mL
MIC (Acinetobacter bereziniae, isolate NO-Ab114, Acinetobacter bereziniae, read-out: MIC): 0.12 µg/mL
MIC (Acinetobacter bereziniae, isolate NO-Ab115, Acinetobacter bereziniae, read-out: MIC): 0.25 µg/mL
MIC (Acinetobacter bereziniae, isolate NO-Ab116, Acinetobacter bereziniae, read-out: MIC): 0.25 µg/mL
MIC (Acinetobacter bereziniae, isolate NO-Ab117, Acinetobacter bereziniae, read-out: MIC): 0.12 µg/mL
MIC (Acinetobacter bereziniae, isolate NO-Ab129, Acinetobacter bereziniae, read-out: MIC): 0.25 µg/mL
MIC (Acinetobacter bereziniae, isolate NO-Ab156, Acinetobacter bereziniae, read-out: MIC): 0.12 µg/mL
MIC (Acinetobacter calcoaceticus, isolate NO-Ab85, Acinetobacter calcoaceticus, read-out: MIC): 0.12 µg/mL
MIC (Acinetobacter calcoaceticus, isolate NO-Ab94, Acinetobacter calcoaceticus, read-out: MIC): ≤ 0.06 µg/mL
MIC (Acinetobacter calcoaceticus, isolate NO-Ab108, Acinetobacter calcoaceticus, read-out: MIC): ≤ 0.06 µg/mL
MIC (Acinetobacter calcoaceticus, isolate NO-Ab161, Acinetobacter calcoaceticus, read-out: MIC): 0.12 µg/mL
MIC (Acinetobacter calcoaceticus, isolate NO-Ab198, Acinetobacter calcoaceticus, read-out: MIC): ≤ 0.06 µg/mL
MIC (Acinetobacter calcoaceticus, isolate NO-Ab205, Acinetobacter calcoaceticus, read-out: MIC): 0.25 µg/mL
MIC (Acinetobacter calcoaceticus, isolate NO-Ab211, Acinetobacter calcoaceticus, read-out: MIC): 0.12 µg/mL
MIC (Acinetobacter courvalinii, isolate NO-Ab216, Acinetobacter courvalinii, read-out: MIC): 0.5 µg/mL
MIC (Acinetobacter dispersus, isolate NO-Ab2, Acinetobacter dispersus, read-out: MIC): ≤ 0.06 µg/mL
MIC (Acinetobacter guillouiae, isolate NO-Ab69, Acinetobacter guillouiae, read-out: MIC): ≤ 0.06 µg/mL
MIC (Acinetobacter guillouiae, isolate NO-Ab74, Acinetobacter guillouiae, read-out: MIC): 0.25 µg/mL
MIC (Acinetobacter haemolyticus, isolate NO-Ab92, Acinetobacter haemolyticus): 0.12 µg/mL
MIC (Acinetobacter haemolyticus, isolate NO-Ab177, Acinetobacter haemolyticus): 0.12 µg/mL
MIC (Acinetobacter haemolyticus, isolate NO-Ab217, Acinetobacter haemolyticus): 0.12 µg/mL
MIC (Acinetobacter johnsonii, isolate NO-Ab101, Acinetobacter johnsonii, read-out: MIC): 0.12 µg/mL
MIC (Acinetobacter junii, isolate NO-Ab76, Acinetobacter junii, read-out: MIC): ≤ 0.06 µg/mL
MIC (Acinetobacter junii, isolate NO-Ab77, Acinetobacter junii, OXA-24/40, read-out: MIC): 32 µg/mL
MIC (Acinetobacter lactucae, isolate NO-Ab60, Acinetobacter dijkshoorniae, read-out: MIC): 0.25 µg/mL
MIC (Acinetobacter lactucae, isolate NO-Ab63, Acinetobacter dijkshoorniae, read-out: MIC): 0.25 µg/mL
MIC (Acinetobacter lactucae, isolate NO-Ab65, Acinetobacter dijkshoorniae, read-out: MIC): 0.25 µg/mL
MIC (Acinetobacter lactucae, isolate NO-Ab86, Acinetobacter dijkshoorniae, read-out: MIC): 0.12 µg/mL
MIC (Acinetobacter lactucae, isolate NO-Ab88, Acinetobacter dijkshoorniae, read-out: MIC): 0.12 µg/mL
MIC (Acinetobacter lactucae, isolate NO-Ab91, Acinetobacter dijkshoorniae, read-out: MIC): 0.12 µg/mL
MIC (Acinetobacter lactucae, isolate NO-Ab121, Acinetobacter dijkshoorniae, read-out: MIC): 0.12 µg/mL
MIC (Acinetobacter lactucae, isolate NO-Ab125, Acinetobacter dijkshoorniae, read-out: MIC): ≤ 0.06 µg/mL
MIC (Acinetobacter lactucae, isolate NO-Ab160, Acinetobacter dijkshoorniae, read-out: MIC): 0.12 µg/mL
MIC (Acinetobacter nosocomialis, isolate NO-Ab43, Acinetobacter nosocomialis, read-out: MIC): ≤ 0.06 µg/mL
MIC (Acinetobacter nosocomialis, isolate NO-Ab68, Acinetobacter nosocomialis, OXA-24/40, read-out: MIC): 32 µg/mL
MIC (Acinetobacter nosocomialis, isolate NO-Ab98, Acinetobacter nosocomialis, read-out: MIC): 0.12 µg/mL
MIC (Acinetobacter nosocomialis, isolate NO-Ab208, Acinetobacter nosocomialis, read-out: MIC): 0.12 µg/mL
MIC (Acinetobacter pittii, isolate NO-Ab59, Acinetobacter pittii, read-out: MIC): 0.25 µg/mL
MIC (Acinetobacter pittii, isolate NO-Ab66, Acinetobacter pittii, read-out: MIC): 0.25 µg/mL
MIC (Acinetobacter pittii, isolate NO-Ab73, Acinetobacter pittii, read-out: MIC): ≤ 0.06 µg/mL
MIC (Acinetobacter pittii, isolate NO-Ab75, Acinetobacter pittii, read-out: MIC): 0.25 µg/mL
MIC (Acinetobacter pittii, isolate NO-Ab78, Acinetobacter pittii, read-out: MIC): ≤ 0.06 µg/mL
MIC (Acinetobacter pittii, isolate NO-Ab82, Acinetobacter pittii, read-out: MIC): ≤ 0.06 µg/mL
MIC (Acinetobacter pittii, isolate NO-Ab89, Acinetobacter pittii, read-out: MIC): 0.12 µg/mL
MIC (Acinetobacter pittii, isolate NO-Ab90, Acinetobacter pittii, read-out: MIC): ≤ 0.06 µg/mL
MIC (Acinetobacter pittii, isolate NO-Ab97, Acinetobacter pittii, read-out: MIC): ≤ 0.06 µg/mL
MIC (Acinetobacter pittii, isolate NO-Ab105, Acinetobacter pittii, read-out: MIC): 0.12 µg/mL
MIC (Acinetobacter pittii, isolate NO-Ab106, Acinetobacter pittii, read-out: MIC): ≤ 0.06 µg/mL
MIC (Acinetobacter pittii, isolate NO-Ab107, Acinetobacter pittii, read-out: MIC): ≤ 0.06 µg/mL
MIC (Acinetobacter pittii, isolate NO-Ab111, Acinetobacter pittii, read-out: MIC): 0.12 µg/mL
MIC (Acinetobacter pittii, isolate NO-Ab113, Acinetobacter pittii, read-out: MIC): 0.25 µg/mL
MIC (Acinetobacter pittii, isolate NO-Ab118, Acinetobacter pittii, read-out: MIC): 0.12 µg/mL
MIC (Acinetobacter pittii, isolate NO-Ab135, Acinetobacter pittii, read-out: MIC): 0.12 µg/mL
MIC (Acinetobacter pittii, isolate NO-Ab145, Acinetobacter pittii, read-out: MIC): 0.12 µg/mL
MIC (Acinetobacter pittii, isolate NO-Ab151, Acinetobacter pittii, read-out: MIC): 0.25 µg/mL
MIC (Acinetobacter pittii, isolate NO-Ab154, Acinetobacter pittii, read-out: MIC): 0.25 µg/mL
MIC (Acinetobacter pittii, isolate NO-Ab157, Acinetobacter pittii, read-out: MIC): 0.25 µg/mL
MIC (Acinetobacter pittii, isolate NO-Ab162, Acinetobacter pittii, read-out: MIC): 0.12 µg/mL
MIC (Acinetobacter pittii, isolate NO-Ab164, Acinetobacter pittii, read-out: MIC): ≤ 0.06 µg/mL
MIC (Acinetobacter pittii, isolate NO-Ab178, Acinetobacter pittii, read-out: MIC): 0.12 µg/mL
MIC (Acinetobacter pittii, isolate NO-Ab197, Acinetobacter pittii, read-out: MIC): 0.12 µg/mL
MIC (Acinetobacter proteolyticus, isolate NO-Ab99, Acinetobacter proteolyticus, read-out: MIC): 0.25 µg/mL
MIC (Acinetobacter proteolyticus, isolate NO-Ab102, Acinetobacter proteolyticus, read-out: MIC): 0.25 µg/mL
MIC (Acinetobacter proteolyticus, isolate NO-Ab210, Acinetobacter proteolyticus, read-out: MIC): ≤ 0.06 µg/mL
MIC (Acinetobacter radioresistens, isolate NO-Ab175, Acinetobacter radioresistens, read-out: MIC): 0.25 µg/mL
MIC (Acinetobacter radioresistens, isolate NO-Ab215, Acinetobacter radioresistens, read-out: MIC): 0.12 µg/mL
MIC (Acinetobacter ursingii, isolate NO-Ab3, Acinetobacter ursingii, read-out: MIC): ≤ 0.06 µg/mL
MIC (Acinetobacter ursingii, isolate NO-Ab64, Acinetobacter ursingii, read-out: MIC): ≤ 0.06 µg/mL
MIC (Acinetobacter ursingii, isolate NO-Ab87, Acinetobacter ursingii, read-out: MIC): ≤ 0.06 µg/mL
MIC (Acinetobacter ursingii, isolate NO-Ab103, Acinetobacter ursingii, read-out: MIC): ≤ 0.06 µg/mL
MIC (Acinetobacter ursingii, isolate NO-Ab119, Acinetobacter ursingii, read-out: MIC): 0.25 µg/mL
MIC (Acinetobacter ursingii, isolate NO-Ab120, Acinetobacter ursingii, read-out: MIC): ≤ 0.06 µg/mL
MIC (Acinetobacter ursingii, isolate NO-Ab123, Acinetobacter ursingii, read-out: MIC): ≤ 0.06 µg/mL
MIC (Acinetobacter ursingii, isolate NO-Ab126, Acinetobacter ursingii, read-out: MIC): 0.12 µg/mL
MIC (Acinetobacter ursingii, isolate NO-Ab147, Acinetobacter ursingii, read-out: MIC): 0.25 µg/mL
MIC (Acinetobacter ursingii, isolate NO-Ab155, Acinetobacter ursingii, read-out: MIC): 0.25 µg/mL
MIC (Acinetobacter ursingii, isolate NO-Ab165, Acinetobacter ursingii, read-out: MIC): 0.12 µg/mL
MIC (Acinetobacter ursingii, isolate NO-Ab166, Acinetobacter ursingii, read-out: MIC): ≤ 0.06 µg/mL
MIC (Acinetobacter ursingii, isolate NO-Ab214, Acinetobacter ursingii, read-out: MIC): ≤ 0.06 µg/mL
MIC (Acinetobacter ursingii, isolate NO-Ab221, Acinetobacter ursingii, read-out: MIC): ≤ 0.06 µg/mL
MIC (Acinetobacter ursingii, isolate NO-Ab222, Acinetobacter ursingii, read-out: MIC): ≤ 0.06 µg/mL
MIC (Acinetobacter, isolate NO-Ab146, Acinetobacter iwoffii, read-out: MIC): 0.25 µg/mL
MIC (Acinetobacter, isolate NO-Ab159, Acinetobacter iwoffii, read-out: MIC): ≤ 0.06 µg/mL
MIC50 [1]: 0.12 µg/mL
MIC90 [1]: 0.25 µg/mL
MIC distribution 0.25 (cumulative share of A. non-baumannii isolates (n=87) at MIC 0.25 mg/L, ETZ fixed 8 mg/L in combinations): 96.6
MIC distribution 0.5 (cumulative share of A. non-baumannii isolates (n=87) at MIC 0.5 mg/L, ETZ fixed 8 mg/L in combinations): 97.7
MIC distribution 1 (cumulative share of A. non-baumannii isolates (n=87) at MIC 1 mg/L, ETZ fixed 8 mg/L in combinations): 97.7
MIC distribution 2 (cumulative share of A. non-baumannii isolates (n=87) at MIC 2 mg/L, ETZ fixed 8 mg/L in combinations): 97.7
MIC distribution 4 (cumulative share of A. non-baumannii isolates (n=87) at MIC 4 mg/L, ETZ fixed 8 mg/L in combinations): 97.7
MIC distribution 8 (cumulative share of A. non-baumannii isolates (n=87) at MIC 8 mg/L, ETZ fixed 8 mg/L in combinations): 97.7
MIC distribution 16 (cumulative share of A. non-baumannii isolates (n=87) at MIC 16 mg/L, ETZ fixed 8 mg/L in combinations): 97.7
MIC distribution 32 (cumulative share of A. non-baumannii isolates (n=87) at MIC 32 mg/L, ETZ fixed 8 mg/L in combinations): 100
MIC distribution ≤0.06 (cumulative share of A. non-baumannii isolates (n=87) at MIC ≤0.06 mg/L, ETZ fixed 8 mg/L in combinations): 32.2
